{
  "source": "patent US20210253518A1",
  "about": "“KINASE INHIBITOR” (NISSAN CHEMICAL CORPORATION, priority 2018, published 2021)",
  "assay_type_in_all_cases": "biochemical",
  "key": {"[1]": {"molecular_target": "T1, LATS2 (Homo sapiens, UniProt Q9NRM7)", "T1 sequence (Q9NRM7 1-1088)": "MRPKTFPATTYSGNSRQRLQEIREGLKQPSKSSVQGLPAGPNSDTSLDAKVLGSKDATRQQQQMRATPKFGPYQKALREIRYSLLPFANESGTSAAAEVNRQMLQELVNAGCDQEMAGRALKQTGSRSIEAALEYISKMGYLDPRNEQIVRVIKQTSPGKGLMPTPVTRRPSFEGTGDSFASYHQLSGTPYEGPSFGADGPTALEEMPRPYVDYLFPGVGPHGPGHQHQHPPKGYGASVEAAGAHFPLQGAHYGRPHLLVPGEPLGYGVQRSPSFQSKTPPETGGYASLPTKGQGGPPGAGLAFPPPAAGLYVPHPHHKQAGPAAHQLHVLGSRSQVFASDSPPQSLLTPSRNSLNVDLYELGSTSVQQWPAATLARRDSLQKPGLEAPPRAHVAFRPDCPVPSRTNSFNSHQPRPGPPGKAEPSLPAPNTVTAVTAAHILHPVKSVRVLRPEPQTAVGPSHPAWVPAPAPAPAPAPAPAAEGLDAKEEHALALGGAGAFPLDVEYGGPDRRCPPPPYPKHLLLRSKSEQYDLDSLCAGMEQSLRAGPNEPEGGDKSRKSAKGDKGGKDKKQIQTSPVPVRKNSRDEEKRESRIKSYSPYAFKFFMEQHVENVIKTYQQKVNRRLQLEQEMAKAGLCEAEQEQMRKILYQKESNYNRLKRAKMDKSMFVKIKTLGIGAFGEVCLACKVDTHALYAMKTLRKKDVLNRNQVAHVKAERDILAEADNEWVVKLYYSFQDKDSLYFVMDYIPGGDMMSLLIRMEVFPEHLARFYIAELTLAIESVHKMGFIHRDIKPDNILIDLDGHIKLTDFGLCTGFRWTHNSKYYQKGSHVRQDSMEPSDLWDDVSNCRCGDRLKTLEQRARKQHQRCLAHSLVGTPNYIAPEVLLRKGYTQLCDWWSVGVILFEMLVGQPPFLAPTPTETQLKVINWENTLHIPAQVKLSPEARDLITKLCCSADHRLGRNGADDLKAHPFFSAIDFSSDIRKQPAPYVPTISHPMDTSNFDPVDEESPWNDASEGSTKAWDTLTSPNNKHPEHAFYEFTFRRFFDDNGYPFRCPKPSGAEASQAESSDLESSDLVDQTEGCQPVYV", "assay": "Off-chip Mobility Shift Assay (MSA method), kinase inhibition", "conditions": "MSA method; 10 steps from 10 μM to 0.3 nM", "protocol": "For compound k-1:B-1, inhibitory activity evaluation (calculation of 50% inhibitory concentration (IC50)) was performed on 8 kinds of kinases (CGK2, LATS2, MSK1, p70S6K, PKACα, PKACβ, SGK2, SGK3). The activity was measured using the Off-chip Mobility Shift Assay (MSA method) described below. The compound was added such that the test concentration of k-1:B-1 was in 10 steps from the final concentration of 10 μM to 0.3 nM.\nAs an analysis method of the data, the mean signal of the control well containing all reaction components was set to 0% inhibition, the mean signal without enzyme addition was set to 100% inhibition, and the inhibition rate was calculated from the mean signal of 2 wells of each test substance test. The IC50 value was obtained by approximating a plot based on the test substance concentration and inhibition rate to a 4 parameter logistics curve by using the Excel Solver add-in and by the non-linear least squares method.\n(§1) 5 μL of k-1:B-1 solution at 4-fold concentration, 5 μL of substrate/ATP/metal solution at 4-fold concentration, and 10 μL of kinase solution at 2-fold concentration, each prepared with assay buffer (20 mM HEPES, 0.01% Triton X-100, 2 mM DTT, pH 7.5), were mixed in the wells of a polypropylene 384-well plate and reacted at room temperature for 1 or 5 hr. Successively, 70 μL of Termination Buffer (QuickScout Screening Assist MSA; Carna Biosciences) was added to discontinue the reaction. Then, the substrate peptide and the phosphorylated peptide in the reaction solution were separated and quantified by the LabChip system (Perkin Elmer). The kinase reaction was evaluated by the resultant product ratio (P/(P+S)) calculated from the substrate peptide peak height (S) and the phosphorylated peptide peak height (P).\nFor compounds k-1:H-7, k-1:H-1, k-1:D-1, k-1:J-1, and k-1:B-1, inhibitory rate at 100 nM was calculated on 8 kinds of kinases (CGK2, LATS2, MSK1, p70S6K, PKACα, PKACβ, SGK2, SGK3). The activity was measured using the MSA method. As an analysis method of the data, the mean signal of the control well containing all reaction components was set to 0% inhibition, the mean signal without enzyme addition was set to 100% inhibition, and the inhibition rate was calculated from the mean signal of 2 wells of each test substance test.\nas §1, with “a compound” for “k-1:B-1”\nFor compounds k-1:I-1, k-1:D-1, k-1:J-1, k-1:H-1, k-1:H-7, k-1:B-1, k-5:H-1, k-1:H-3, k-1:D-4 and k-1:I-10, inhibitory activity evaluation (calculation of IC50) was performed on LATS2. The activity was measured using the Off-chip Mobility Shift Assay (MSA method) described below. The compounds were added such that the test concentration of each compound was in 10 steps from the final concentration of 10 μM to 0.3 nM.\n5 μL of k-1:I-1, k-1:D-1, k-1:J-1, k-1:H-1, k-1:H-7, k-1:B-1, k-5:H-1, k-1:H-3, k-1:D-4 and k-1:I-10 solutions at 4-fold concentration, 5 μL of substrate/ATP/metal solution at 4-fold concentration, and 10 μL of kinase solution at 2-fold concentration, each prepared with assay buffer (20 mM HEPES, 0.01% Triton X-100, 2 mM DTT, pH 7.5), were mixed in the wells of a polypropylene 384-well plate and reacted at room temperature for 1 or 5 hr. […]"}, "[2]": {"molecular_target": "T2, LATS2 (Homo sapiens, UniProt Q9NRM7)", "T2 construct": "purchased Carna Biosciences", "T2 sequence (Q9NRM7 553-1088 limits assumed)": "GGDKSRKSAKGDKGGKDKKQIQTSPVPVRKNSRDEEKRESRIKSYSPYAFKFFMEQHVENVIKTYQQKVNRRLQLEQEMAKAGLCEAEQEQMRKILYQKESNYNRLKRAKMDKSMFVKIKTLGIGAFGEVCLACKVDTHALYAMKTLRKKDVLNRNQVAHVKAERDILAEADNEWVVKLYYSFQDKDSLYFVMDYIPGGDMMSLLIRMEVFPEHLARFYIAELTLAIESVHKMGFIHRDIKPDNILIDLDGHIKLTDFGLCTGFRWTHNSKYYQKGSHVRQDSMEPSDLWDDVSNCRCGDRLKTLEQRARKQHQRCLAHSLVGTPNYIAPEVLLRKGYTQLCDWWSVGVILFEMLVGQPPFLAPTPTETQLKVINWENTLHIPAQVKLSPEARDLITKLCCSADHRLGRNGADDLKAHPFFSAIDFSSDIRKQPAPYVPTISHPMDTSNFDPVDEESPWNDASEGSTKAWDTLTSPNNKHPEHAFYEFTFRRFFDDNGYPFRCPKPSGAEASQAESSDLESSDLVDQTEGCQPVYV", "assay": "Kinase Assay method (Fluorospark Kinase/ADP Multi-Assay Kit)", "protocol": "(§2) For compound k-1:B-1 (racemate), GA-002A, GA-002B, GA-005A and GA-005B, inhibitory activity evaluation (calculation of IC50) was performed on LATS1 and LATS2 (manufactured by Carna Biosciences). The activity was measured using the Kinase Assay method described below. The compounds were added such that the test concentration of k-1:B-1 (racemate), GA-002A, GA-002B, GA-005A and GA-005B was in 8 steps (10 μM, 1 μM, 100 nM, […], 10 nM, 3 nM, 1 nM, 0.3 nM) from the final concentration of 10 μM to 0.3 nM.\n(§3) As the analysis method of the data, the mean signal of the control well containing reaction components other than the evaluation compound was set to 0% inhibition, the mean signal without enzyme addition was set to 100% inhibition, and the inhibition rate was calculated from the mean signal of 2 wells of each test substance test. IC50 value was calculated using EXSUS (version 7.1.6, manufactured by CAC EXICARE Corporation).\n(§4) 2 μL of a compound of the present invention solution at 2.5-fold concentration, 1 μL of substrate at 5-fold concentration (SGKtide: NH2—CKKRNRRLSVA-COOH, manufactured by SignalChem), ATP (manufactured by Sigma-Aldrich), MgCl2 (manufactured by FUJIFILM Wako Pure Chemical Corporation) solution (final concentration 10 μM, 400 μM or 5 mM), and 2 μL of kinase solution at 2.5-fold concentration (final concentration of LATS1 or LATS2 5 μg/mL), each prepared with assay buffer (20 mM HEPES, 0.01% Triton X-100, 2 mM DTT, pH 7.5), were mixed in the wells of a polypropylene 384-well plate (manufactured by Greiner Bio-One, #784900) and reacted at room temperature for 5 hr. Successively, 5 μL detection solution (Fluorospark (registered trade mark)Kinase/ADP Multi-Assay Kit; manufactured by FUJIFILM Wako Pure Chemical Corporation) was added, and the mixture was reacted at room temperature 30 min. Successively, 5 μL of a reaction quenching liquid (Fluorospark (registered trade mark) Kinase/ADP Multi-Assay Kit; manufactured by FUJIFILM Wako Pure Chemical Corporation) was added to discontinue the reaction. Thereafter, the ADP concentration of the reaction solution was quantified by EnSpire (manufactured by PerkinElmer) to detect the kinase reaction."}, "[3]": {"molecular_target": "T3, LATS1 (Homo sapiens, UniProt O95835)", "T3 construct": "purchased Carna Biosciences", "T3 sequence (O95835 589-1130 limits assumed)": "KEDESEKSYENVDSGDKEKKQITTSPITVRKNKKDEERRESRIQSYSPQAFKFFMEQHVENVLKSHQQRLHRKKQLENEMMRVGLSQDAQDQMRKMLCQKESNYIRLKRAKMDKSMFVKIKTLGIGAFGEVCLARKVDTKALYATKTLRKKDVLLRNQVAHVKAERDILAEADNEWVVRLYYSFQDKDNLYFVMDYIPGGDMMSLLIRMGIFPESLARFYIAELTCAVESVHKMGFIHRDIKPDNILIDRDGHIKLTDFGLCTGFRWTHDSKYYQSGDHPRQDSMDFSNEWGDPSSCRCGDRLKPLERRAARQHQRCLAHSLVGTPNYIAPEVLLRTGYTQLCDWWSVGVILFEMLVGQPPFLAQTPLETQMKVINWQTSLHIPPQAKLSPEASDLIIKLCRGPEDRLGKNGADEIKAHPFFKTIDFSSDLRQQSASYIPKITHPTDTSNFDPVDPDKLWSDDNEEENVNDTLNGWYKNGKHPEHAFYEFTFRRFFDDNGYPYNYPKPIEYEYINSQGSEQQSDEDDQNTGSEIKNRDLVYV", "assay": "Kinase Assay method (Fluorospark Kinase/ADP Multi-Assay Kit)", "protocol": "as §2, §3, §4"}, "[4]": {"conditions": "Kinase Assay method, 8 steps 10 μM to 0.3 nM"}},
  "data": [
    {"smiles": "Cc1c(O)ccc(C(CC(C)C)=NNC(=O)CNc2ccccc2)c1O", "note": "[k-5:H-1]", "values": [
      {"measurement": "IC50", "setting": "[1]", "result": 0.0216, "unit": "µM"}
    ]},
    {"smiles": "CC/C(=N\\NC(=O)[C@H](C)Nc1cccc(O)c1)c1ccc(O)c(C)c1O", "note": "[GA-005B]", "values": [
      {"measurement": "inhibition at 0.1 µM", "setting": "[2]; 100 nM, read-out: LARS2 inhibitory rate (%)", "result": 27, "unit": "%"},
      {"measurement": "inhibition at 1 µM", "setting": "[2]; 1000 nM, read-out: LARS2 inhibitory rate (%)", "result": 55, "unit": "%"},
      {"measurement": "IC50", "setting": "[2]; [4]", "result": 0.652, "unit": "µM"},
      {"measurement": "inhibition at 0.1 µM", "setting": "[3]; 100 nM, read-out: LARS1 inhibitory rate (%)", "result": 14, "unit": "%"},
      {"measurement": "inhibition at 1 µM", "setting": "[3]; 1000 nM, read-out: LARS1 inhibitory rate (%)", "result": 45, "unit": "%"},
      {"measurement": "IC50", "setting": "[3]; [4]", "result": 1.27, "unit": "µM"}
    ]},
    {"smiles": "CCC(=NNC(=O)NC(C)c1cccc(O)c1)c1ccc(O)c(C)c1O", "note": "(centres unmarked) [k-1:I-10]", "values": [
      {"measurement": "IC50", "setting": "[1]", "result": 0.015, "unit": "µM"}
    ]},
    {"smiles": "CC/C(=N\\NC(=O)NCc1ccccc1)c1ccc(O)c(C)c1O", "note": "[k-1:I-1]", "values": [
      {"measurement": "IC50", "setting": "[1]", "result": 0.096, "unit": "µM"}
    ]},
    {"smiles": "CCC(=NNC(=O)CNc1cccc(C)c1)c1ccc(O)c(C)c1O", "note": "[k-1:H-3]", "values": [
      {"measurement": "IC50", "setting": "[1]", "result": 0.0469, "unit": "µM"}
    ]},
    {"smiles": "CCC(=NNC(=O)CNc1ccccc1O)c1ccc(O)c(C)c1O", "note": "[k-1:D-4]", "values": [
      {"measurement": "IC50", "setting": "[1]", "result": 0.0334, "unit": "µM"}
    ]}
  ]
}
